Test results: patent publication US20070202179A1, “Low Dose Pharmaceutical Products” (priority 2004, published 2007)

Target: T1, human PPAR alpha (Homo sapiens, UniProt Q07869)
T1 sequence (Q07869 1-468): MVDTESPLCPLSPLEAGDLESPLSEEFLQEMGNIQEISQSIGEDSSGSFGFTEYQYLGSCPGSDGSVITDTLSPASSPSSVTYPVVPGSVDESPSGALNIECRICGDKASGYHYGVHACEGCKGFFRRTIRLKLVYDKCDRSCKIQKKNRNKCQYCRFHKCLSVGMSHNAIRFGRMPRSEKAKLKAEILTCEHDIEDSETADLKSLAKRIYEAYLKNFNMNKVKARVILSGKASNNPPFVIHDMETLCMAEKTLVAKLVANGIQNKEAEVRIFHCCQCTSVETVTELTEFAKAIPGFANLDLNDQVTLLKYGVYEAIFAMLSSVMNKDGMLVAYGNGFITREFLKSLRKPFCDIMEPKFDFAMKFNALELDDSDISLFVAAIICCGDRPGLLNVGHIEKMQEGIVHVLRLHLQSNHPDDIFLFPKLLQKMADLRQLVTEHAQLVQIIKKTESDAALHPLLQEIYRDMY
Assay: Effectiveness of Compound 1 at very low daily dosage regimes
Assay type: in vivo
Details: investigated for dyslipidemia, syndrome X and atherosclerosis
Procedure: The compound of formula (1) is a particularly preferred PPAR alpha agonist and is described in WO 01/40207 as being of use in human PPAR alpha mediated diseases. The dosage regime contemplated in WO 01/40207 is 0.02-5000 mg per day. […] Thus the invention further provides a pharmaceutical composition comprising less than 1-100 μg Compound (1) or pharmaceutically acceptable salts, solvates and physiologically functional derivatives thereof together with a pharmaceutically acceptable carrier. Preferably the composition comprises less than 20 μg, more preferably 1-18 μg, most preferably 1-10 μg.

**Q.** With `Cc1nc(-c2ccc(C(F)(F)F)cc2)sc1C(=O)NCc1ccc(OC(C)(C)C(=O)O)cc1` [Compound 1, 2-methyl-2-[4-{[(4-methyl-2-[4-trifluoromethylphenyl]-thiazol-5-ylcarbonyl)amino]methyl}phenoxy]propionic acid] as the molecule, how does the “Dosage regime at which the compound is effective” value read?
**A.** Its value is “less than 0.02 mg per day”.
